According to article PMC12030627, “Radioiodinated Bicyclic RGD Peptide Derivatives for Enhanced Tumor Accumulation” (Pharmaceuticals, 2025):
Like-named read-outs stand apart in the source and are kept apart here.

Assay: Biodistribution in A549 and U-87 MG co-implantation mice
Assay type: in vivo, BALB/c nu-nu mice
Settings: male, BALB/c nu-nu, mouse, iv, 37 kBq, total radioactivity, U-87 MG and A549 co-implanted mice, mean ± SD, n = 4
Method: Animal experiments were performed in compliance with institutional animal care regulations, with the study protocol approved by the Experimental Animal Committee of Osaka Medical and Pharmaceutical University (Approval Numbers: 21–76, 22–76, and 23–76). Four-week-old male BALB/c nu-nu mice (Japan SLC, Shizuoka, Japan) were housed under a 12 h light/12 h dark cycle with free access to food and water. Tumor-bearing mice were established by suspending U-87 MG cells (2 × 10^6 cells/mouse) in PBS(–) and subcutaneously injecting 100 μL of the suspension into the right hind leg. For co-implantation models, A549 cells (2 × 10^6 cells/mouse) were suspended in PBS(–) and inoculated (100 μL) into the left hind leg of the same mice already inoculated with U-87 MG cells. Mice with tumor size approximately 10 mm in diameter, 4–5 weeks after inoculation, were used for biodistribution studies. Animals in which either tumor was not viable were excluded from the experiment.
U-87 MG-bearing mice (n = 42, 8–9 weeks old; 22–27 g) were randomly assigned into groups and administered [^125I]bcRGDpal or [^125I]bcRGDiba via intravenous injection (37 kBq in 100 μL of PBS containing 0.1% Tween 80 (PBS-T80)). At 5 min, 30 min, 1 h, 2 h, 6 h, 12 h, or 24 h post-injection, the mice were euthanized (n = 3 per time point). The heart, kidneys, liver, brain, pancreas, spleen, lung, small intestine, large intestine, muscle, skin, stomach, bone, and tumors were excised. Each organ’s weight and radioactivity were measured by a NaI well-type scintillation counter, and the % ID/g was calculated. To investigate the correlation between integrin expression and radioactivity accumulation, biodistribution at 2 h after administration of [^125I]bcRGDpal or [^125I]bcRGDiba was assessed in A549 and U-87 MG co-implantation mice (n = 5) using the same procedure. Additionally, co-implantation mice were injected with [^125I]bcRGDdimer (37 kBq/100 μL PBS-T80) and euthanized at 30 min, 2 h, and 4 h post-injection (n = 4 per time point), and % ID/g values were calculated as described above. The minimum sample size needed for the biodistribution study in U-87 MG-bearing mice was calculated using G Power software version 3.1.9.7. The calculation was based on a two-tailed test, with an effect size of 3.9, a significance level (α) of 0.05, and a statistical power (1 − β) of 0.8. […] The minimum required sample size for the biodistribution study in A549 and U-87 MG co-implantation mice was also calculated to be four animals per group (effect size = 2.5, α = 0.05, 1 − β = 0.8). To guarantee objective results, the experiment was carried out in a blinded manner. Specifically, drug administration and radioactivity measurements were conducted by different investigators to eliminate potential bias.

For N=C(N)NCCC[C@@H]1NC(=O)[C@H]2CSCc3cc(cc(c3)CSC[C@H](C(N)=O)NC(=O)[C@H](CC(=O)O)NC(=O)CNC1=O)CSC[C@H](NC(=O)CNC(=O)[C@H](CO)NC(=O)c1ccc(NC(=O)CNC(=O)[C@H](CO)NC(=O)[C@@H]3CCCN3C(=O)[C@@H]3CCCN3C(=O)[C@@H]3CCCN3C(=O)CCc3cn(CC[C@H](NC(=O)CCNC(=O)c4cccc(I)c4)C(=O)N4CCC[C@H]4C(=O)N4CCC[C@H]4C(=O)N4CCC[C@H]4C(=O)N[C@@H](CO)C(=O)NCC(=O)Nc4ccc(C(=O)N[C@@H](CO)C(=O)NCC(=O)N[C@H]5CSCc6cc7cc(c6)CSC[C@@H](NC(=O)[C@H](CCC(N)=O)NC(=O)[C@@H]6CCCN6C(=O)[C@H](Cc6c[nH]cn6)NC5=O)C(=O)N[C@@H](CCCNC(=N)N)C(=O)NCC(=O)N[C@@H](CC(=O)O)C(=O)N[C@@H](C(N)=O)CSC7)cc4)nn3)cc1)C(=O)N[C@@H](Cc1c[nH]cn1)C(=O)N1CCC[C@H]1C(=O)N[C@@H](CCC(N)=O)C(=O)N2 [[^125I]bcRGDdimer], which tissue uptake at 0.5 h (A549 tumor, 30 min after i.v. administration, read-out: Radioactivity in A549 tumor) is on record?
Its tissue uptake at 0.5 h is 1.7 ± 0.6 %ID/g.

What about the tissue uptake at 2 h (A549 tumor, 2 h after i.v. administration, read-out: Radioactivity in A549 tumor) of the same compound?
Its tissue uptake at 2 h is 0.8 ± 0.2 %ID/g.

And the tissue uptake at 4 h (A549 tumor, 4 h after i.v. administration, read-out: Radioactivity in A549 tumor)?
The tissue uptake at 4 h was 0.4 ± 0.1 %ID/g.

What about the tissue uptake at 0.5 h (U-87 MG tumor, 30 min after i.v. administration, read-out: Radioactivity in U-87 MG tumor) of the same compound?
Its tissue uptake at 0.5 h is 7.5 ± 0.8 %ID/g.

What about the tissue uptake at 2 h (U-87 MG tumor, 2 h after i.v. administration, read-out: Radioactivity in U-87 MG tumor) of the same compound?
The tissue uptake at 2 h was 4.2 ± 1.1 %ID/g.

What about the tissue uptake at 4 h (U-87 MG tumor, 4 h after i.v. administration, read-out: Radioactivity in U-87 MG tumor) of the same compound?
Its tissue uptake at 4 h is 2.9 ± 0.4 %ID/g.

What about the tissue uptake at 2 h (blood, 2 h after i.v. administration, read-out: Radioactivity in blood) of the same compound?
Its tissue uptake at 2 h is 0.3 %ID/g.

And the tissue uptake at 0.5 h (bone, 30 min after i.v. administration, read-out: Radioactivity in bone)?
The tissue uptake at 0.5 h was 1.5 ± 0.3 %ID/g.

What about the tissue uptake at 2 h (bone, 2 h after i.v. administration, read-out: Radioactivity in bone) of the same compound?
The tissue uptake at 2 h was 0.9 ± 0.3 %ID/g.

What about the tissue uptake at 4 h (bone, 4 h after i.v. administration, read-out: Radioactivity in bone) of the same compound?
Its tissue uptake at 4 h is 0.4 %ID/g.

And the tissue uptake at 0.5 h (brain, 30 min after i.v. administration, read-out: Radioactivity in brain)?
Its tissue uptake at 0.5 h is 0.1 %ID/g.

What about the tissue uptake at 0.5 h (heart, 30 min after i.v. administration, read-out: Radioactivity in heart) of the same compound?
The tissue uptake at 0.5 h was 0.6 ± 0.1 %ID/g.

And the tissue uptake at 2 h (heart, 2 h after i.v. administration, read-out: Radioactivity in heart)?
Its tissue uptake at 2 h is 0.2 %ID/g.

What about the tissue uptake at 4 h (heart, 4 h after i.v. administration, read-out: Radioactivity in heart) of the same compound?
The tissue uptake at 4 h was 0.1 %ID/g.

What about the tissue uptake at 0.5 h (kidneys, 30 min after i.v. administration, read-out: Radioactivity in kidneys) of the same compound?
Its tissue uptake at 0.5 h is 10.9 ± 2.6 %ID/g.

And the tissue uptake at 2 h (kidneys, 2 h after i.v. administration, read-out: Radioactivity in kidneys)?
Its tissue uptake at 2 h is 2 ± 0.2 %ID/g.

What about the tissue uptake at 4 h (kidneys, 4 h after i.v. administration, read-out: Radioactivity in kidneys) of the same compound?
The tissue uptake at 4 h was 0.9 ± 0.2 %ID/g.

What about the tissue uptake at 0.5 h (large intestine, 30 min after i.v. administration, read-out: Radioactivity in large intestine) of the same compound?
The tissue uptake at 0.5 h was 0.4 ± 0.2 %ID/g.

And the tissue uptake at 2 h (large intestine, 2 h after i.v. administration, read-out: Radioactivity in large intestine)?
Its tissue uptake at 2 h is 5.5 ± 1 %ID/g.

What about the tissue uptake at 4 h (large intestine, 4 h after i.v. administration, read-out: Radioactivity in large intestine) of the same compound?
Its tissue uptake at 4 h is 5.5 ± 1.4 %ID/g.

What about the tissue uptake at 0.5 h (liver, 30 min after i.v. administration, read-out: Radioactivity in liver) of the same compound?
The tissue uptake at 0.5 h was 0.9 ± 0.1 %ID/g.

What about the tissue uptake at 2 h (liver, 2 h after i.v. administration, read-out: Radioactivity in liver) of the same compound?
The tissue uptake at 2 h was 0.5 ± 0.1 %ID/g.

What about the tissue uptake at 4 h (liver, 4 h after i.v. administration, read-out: Radioactivity in liver) of the same compound?
Its tissue uptake at 4 h is 0.3 ± 0.1 %ID/g.

And the tissue uptake at 0.5 h (lung, 30 min after i.v. administration, read-out: Radioactivity in lung)?
The tissue uptake at 0.5 h was 2.9 ± 0.5 %ID/g.

What about the tissue uptake at 2 h (lung, 2 h after i.v. administration, read-out: Radioactivity in lung) of the same compound?
The tissue uptake at 2 h was 1.2 ± 0.3 %ID/g.

And the tissue uptake at 4 h (lung, 4 h after i.v. administration, read-out: Radioactivity in lung)?
The tissue uptake at 4 h was 0.4 ± 0.1 %ID/g.

What about the tissue uptake at 0.5 h (muscle, 30 min after i.v. administration, read-out: Radioactivity in muscle) of the same compound?
The tissue uptake at 0.5 h was 0.7 ± 0.1 %ID/g.

What about the tissue uptake at 2 h (muscle, 2 h after i.v. administration, read-out: Radioactivity in muscle) of the same compound?
The tissue uptake at 2 h was 0.2 %ID/g.

What about the tissue uptake at 4 h (muscle, 4 h after i.v. administration, read-out: Radioactivity in muscle) of the same compound?
Its tissue uptake at 4 h is 0.1 %ID/g.

And the tissue uptake at 0.5 h (pancreas, 30 min after i.v. administration, read-out: Radioactivity in pancreas)?
The tissue uptake at 0.5 h was 0.5 ± 0.1 %ID/g.

And the tissue uptake at 2 h (pancreas, 2 h after i.v. administration, read-out: Radioactivity in pancreas)?
Its tissue uptake at 2 h is 0.2 ± 0.1 %ID/g.

What about the tissue uptake at 4 h (pancreas, 4 h after i.v. administration, read-out: Radioactivity in pancreas) of the same compound?
Its tissue uptake at 4 h is 0.1 %ID/g.

And the tissue uptake at 0.5 h (small intestine, 30 min after i.v. administration, read-out: Radioactivity in small intestine)?
Its tissue uptake at 0.5 h is 3.6 ± 0.6 %ID/g.

What about the tissue uptake at 2 h (small intestine, 2 h after i.v. administration, read-out: Radioactivity in small intestine) of the same compound?
The tissue uptake at 2 h was 2.3 ± 1 %ID/g.

What about the tissue uptake at 4 h (small intestine, 4 h after i.v. administration, read-out: Radioactivity in small intestine) of the same compound?
The tissue uptake at 4 h was 1.6 ± 0.4 %ID/g.

And the tissue uptake at 0.5 h (spleen, 30 min after i.v. administration, read-out: Radioactivity in spleen)?
Its tissue uptake at 0.5 h is 0.7 ± 0.2 %ID/g.

And the tissue uptake at 2 h (spleen, 2 h after i.v. administration, read-out: Radioactivity in spleen)?
Its tissue uptake at 2 h is 0.3 ± 0.1 %ID/g.

What about the tissue uptake at 4 h (spleen, 4 h after i.v. administration, read-out: Radioactivity in spleen) of the same compound?
The tissue uptake at 4 h was 0.2 %ID/g.

What about the tissue uptake dose at 0.5 h (stomach, 30 min after i.v. administration) of the same compound?
Its tissue uptake dose at 0.5 h is 0.6 ± 0.5 %ID.

And the tissue uptake dose at 2 h (stomach, 2 h after i.v. administration)?
The tissue uptake dose at 2 h was 0.2 %ID.

What about the tissue uptake dose at 4 h (stomach, 4 h after i.v. administration) of the same compound?
The tissue uptake dose at 4 h was 0.3 ± 0.3 %ID.

What about the tissue uptake at 0.5 h (whole blood, 30 min after i.v. administration, read-out: Radioactivity in blood) of the same compound?
Its tissue uptake at 0.5 h is 1.1 ± 0.1 %ID/g.

And the tissue uptake at 2 h (whole blood, 2 h after i.v. administration, read-out: Radioactivity in blood)?
Its tissue uptake at 2 h is 0.3 ± 0.1 %ID/g.

And the tissue uptake at 4 h (whole blood, 4 h after i.v. administration, read-out: Radioactivity in blood)?
Its tissue uptake at 4 h is 0.2 ± 0.1 %ID/g.
